# From ChEMBL document CHEMBL4342451, “α-Glucosidase Inhibitory Isomeric Corniculatolides from the Stems of the Indian Mangrove Plant, Xylocarpus granatum” (J Nat Prod, 2020)
# Activity calls are given as the source filed them. No cut-off for these calls is given here.
# Experiments:
# [1] = test system: MCF7; assay: Cytotoxicity against human MCF7 cells assessed as reduction in cell viability at 1 to 100 uM incubated for 24 to 48 hrs by SRB assay; type: functional, cell-based
# [2] = test system: MIA PaCa-2; assay: Cytotoxicity against human MIAPaCa2 cells assessed as reduction in cell viability at 1 to 100 uM incubated for 24 to 48 hrs by SRB assay; type: functional, cell-based
# [3] = Inhibition of Saccharomyces cerevisiae alpha-glucosidase assessed as decrease in release of p-nitrophenol using pNPG as substrate preincubated for 15 min followed by substrate addition and measured after 5 mins by spectrophotometric method
# [4] = test system: HCT-116; assay: Cytotoxicity against human HCT116 cells assessed as reduction in cell viability at 1 to 100 uM incubated for 24 to 48 hrs by SRB assay; type: functional, cell-based
# [5] = test system: DU-145; assay: Cytotoxicity against human DU145 cells assessed as reduction in cell viability at 1 to 100 uM incubated for 24 to 48 hrs by SRB assay; type: functional, cell-based
SMILES,Activity [1],Activity [2],IC50 [3],Activity [4],Activity [5]
O=C1CCc2cc(O)c(O)c(c2)Oc2ccc(cc2)CCCO1,inactive,inactive,24.8 µM,inactive,inactive
COc1cc2cc(c1OC)Oc1ccc(cc1)CCC(=O)OCCC2,inactive,inactive,134 µM,inactive,inactive
O=C1CCc2ccc(cc2)Oc2cc(ccc2O)CCCO1 [ISOCORNICULATOLIDE A],inactive,inactive,> 200 µM,inactive,inactive
COc1c(O)cc2cc1Oc1ccc(cc1)CCCOC(=O)CC2,inactive,inactive,> 200 µM,inactive,inactive
COc1ccc2cc1Oc1ccc(cc1)CCCOC(=O)CC2,inactive,inactive,65.4 µM,inactive,inactive
C[C@H]1O[C@H](O[C@H]2[C@H](O)[C@@H](O)[C@@H](O[C@H]3[C@H](O)[C@@H](O)C(O)O[C@@H]3CO)O[C@@H]2CO)[C@H](O)[C@@H](O)[C@@H]1N[C@H]1C=C(CO)[C@@H](O)[C@H](O)[C@H]1O (stereo partly specified) [ACARBOSE],–,–,12.2 µM,–,–
COc1cc2cc(c1OC)Oc1ccc(cc1)CCCOC(=O)CC2,inactive,inactive,72.3 µM,inactive,inactive
O=C1CCc2ccc(O)c(c2)Oc2ccc(cc2)CCCO1 [CORNICULATOLIDE A],inactive,inactive,187 µM,inactive,inactive
